Test results published in patent publication EP4562003B1, “NOVEL 7-SUBSTITUTED INDOLE SULFONAMIDE DERIVATIVES” (F. Hoffmann-La Roche AG, priority 2022, dated 2024).

Target: human GPR17 short isoform (Homo sapiens, UniProt Q13304)
Experiment: GPR17 cAMP assay (TR-FRET cAMP quantification, antagonist mode)
Format: cell-based
Settings: CHO-K1 cells stably expressing human GPR17 short isoform; EC80 of agonist MDL29,951; forskolin 15µM; IBMX 0.5mM; 30 minutes at room temperature; read-out: hGPR17 cAMP IC50
Description: GPR17 cAMP Assay Protocol:
CHO-K1 cells stably expressing vector containing untagged human GPR17 short isoform (Roche) were cultured at 37°C / 5% CO2 in DMEM (Dulbecco's Modified Eagle Medium):F-12 (1:1) supplemented with 10% foetal bovine serum and 400 µg/ml Geneticin.
Changes in intracellular cyclic adenosine monophosphate (cAMP) levels were quantified using the Nano-TRF Detection Assay kit (Roche Diagnostics, Cat. No. 05214386001). This assay allows for direct cAMP quantification in a homogeneous solution. cAMP is detected based on time-resolved fluorescence energy transfer (TR-FRET) and competitive binding of ruthenylated cAMP and endogenous cAMP to an anti-cAMP monoclonal antibody labeled with AlexaFluor-700. The Ruthenium complex serves as the FRET donor and transfers energy to AlexaFluor-700. The FRET signal is inversely proportional to the cAMP concentration.
CHO-GPR17S cells were detached with Accutase and resuspended in assay buffer consisting of Hank's Balanced Salt Solution (HBSS), 10mM HEPES (4-(2-hydroxyethyl) piperazine-1-ethanesulfonic acid solution) and 0.1% bovine serum albumin (pH 7.4). The cells were seeded in black 384-well plates (Corning) at a density of 10'000 cells / 20µl assay buffer until the addition of compounds.
Test antagonist compounds were serially diluted in dimethyl sulfoxide (DMSO) and spotted in 384-well plates. The compounds were then diluted in HBSS buffer supplemented with an EC80 concentration of MDL29,951 (3-(2-Carboxy-4,6-dichloroindol-3-yl)propionic acid) (GPR17 agonist) plus 3-Isobutyl-1-methylxanthine (IBMX) (0.5mM final concentration) and added to the cells at room temperature. Forskolin (15µM final concentration) was added 5 minutes after the test compounds and the cells were incubated at room temperature for 30 minutes. The assay was stopped by adding cAMP detection mix (containing detergents for cell lysis) for 90 minutes at room temperature.
Cellular cAMP was measured using a Paradigm reader (Molecular Devices). The raw data was used to calculate the FRET signal based on the assay's P-factor as per cAMP kit instructions. The data was normalized to the maximal activity of a reference antagonist and dose response curves were fitted to the percent activity of the test compounds using a sigmoidal dose response model (Genedata Screener).
Results in the hGPR17 cAMP assay are provided for compounds of formula I in Table 1 Table 1: […]

Chain of human GPR17 short isoform (Q13304 29-367): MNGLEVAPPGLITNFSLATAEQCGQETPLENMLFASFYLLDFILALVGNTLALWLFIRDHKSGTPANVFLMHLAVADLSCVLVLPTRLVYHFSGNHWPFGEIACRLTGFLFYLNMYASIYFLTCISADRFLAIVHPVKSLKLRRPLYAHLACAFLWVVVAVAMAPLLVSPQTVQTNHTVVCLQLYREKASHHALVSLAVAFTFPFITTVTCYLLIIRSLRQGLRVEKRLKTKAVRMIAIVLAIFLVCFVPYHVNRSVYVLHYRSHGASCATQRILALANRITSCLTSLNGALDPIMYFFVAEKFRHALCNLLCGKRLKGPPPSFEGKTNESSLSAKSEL

COc1nc(NS(=O)(=O)c2c[nH]c3c(-c4cnccn4)cccc23)nc(OC)c1OCC(F)F [Example 30, N-[5-(2,2-difluoroethoxy)-4,6-dimethoxy-pyrimidin-2-yl]-7-pyrazin-2-yl-1H-indole-3-sulfonamide]
IC50: 130 nM

COc1nc(NS(=O)(=O)c2c[nH]c3c(-c4cnccn4)c(F)ccc23)nc(OC)c1CC(F)F [Example 31, N-[5-(2,2-difluoroethyl)-4,6-dimethoxy-pyrimidin-2-yl]-6-fluoro-7-pyrazin-2-yl-1H-indole-3-sulfonamide]
IC50: 84 nM

COc1nc(NS(=O)(=O)c2c[nH]c3c(-c4cnccn4)c(F)ccc23)nc(OC)c1OCCF [Example 32, 6-fluoro-N-[5-(2-fluoroethoxy)-4,6-dimethoxy-pyrimidin-2-yl]-7-pyrazin-2-yl-1H-indole-3-sulfonamide]
IC50: 129 nM

COc1nc(NS(=O)(=O)c2c[nH]c3c(-c4cnccn4)c(F)ccc23)nc(OC)c1OCC(F)F [Example 33, N-[5-(2,2-difluoroethoxy)-4,6-dimethoxy-pyrimidin-2-yl]-6-fluoro-7-pyrazin-2-yl-1H-indole-3-sulfonamide]
IC50: 132 nM

COc1nc(NS(=O)(=O)c2c[nH]c3c(-c4cnccn4)c(F)ccc23)nc(OC)c1OC(F)F [Example 34, N-[5-(difluoromethoxy)-4,6-dimethoxy-pyrimidin-2-yl]-6-fluoro-7-pyrazin-2-yl-1H-indole-3-sulfonamide]
IC50: 407 nM

COc1nc(NS(=O)(=O)c2c[nH]c3c(-c4ncccn4)c(Br)ccc23)nc(OC)c1CC(F)F [Example 35, 6-bromo-N-[5-(2,2-difluoroethyl)-4,6-dimethoxy-pyrimidin-2-yl]-7-(2-pyrimidyl)-1H-indole-3-sulfonamide]
IC50: 34 nM

COc1nc(NS(=O)(=O)c2c[nH]c3c(-c4ncccn4)c(Br)ccc23)nc(OC)c1OC(F)F [Example 36, 6-bromo-N-[5-(difluoromethoxy)-4,6-dimethoxy-pyrimidin-2-yl]-7-(2-pyrimidyl)-1H-indole-3-sulfonamide]
IC50: 42 nM

COc1nc(NS(=O)(=O)c2c[nH]c3c(-c4ncccn4)c(Br)ccc23)nc(OC)c1OCCF [Example 37, 6-bromo-N-[5-(2-fluoroethoxy)-4,6-dimethoxy-pyrimidin-2-yl]-7-(2-pyrimidyl)-1H-indole-3-sulfonamide]
IC50: 67 nM

COc1nc(NS(=O)(=O)c2c[nH]c3c(-c4ncccn4)c(Br)ccc23)nc(OC)c1OCC(F)F [Example 38, 6-bromo-N-[5-(2,2-difluoroethoxy)-4,6-dimethoxy-pyrimidin-2-yl]-7-(2-pyrimidyl)-1H-indole-3-sulfonamide]
IC50: 54 nM

COc1nc(NS(=O)(=O)c2c[nH]c3c(-c4cnccn4)c(Br)ccc23)nc(OC)c1CC(F)F [Example 39, 6-bromo-N-[5-(2,2-difluoroethyl)-4,6-dimethoxy-pyrimidin-2-yl]-7-pyrazin-2-yl-1H-indole-3-sulfonamide]
IC50: 17 nM

COc1nc(NS(=O)(=O)c2c[nH]c3c(-c4cnccn4)c(Br)ccc23)nc(OC)c1OC(F)F [Example 40, 6-bromo-N-[5-(difluoromethoxy)-4,6-dimethoxy-pyrimidin-2-yl]-7-pyrazin-2-yl-1H-indole-3-sulfonamide]
IC50: 9 nM

COc1nc(NS(=O)(=O)c2c[nH]c3c(-c4cnccn4)c(Br)ccc23)nc(OC)c1OCC(F)F [Example 41, 6-bromo-N-[5-(2,2-difluoroethoxy)-4,6-dimethoxy-pyrimidin-2-yl]-7-pyrazin-2-yl-1H-indole-3-sulfonamide]
IC50: 15 nM

COc1nc(NS(=O)(=O)c2c[nH]c3c(-c4cnc(F)cn4)c(Cl)ccc23)nc(OC)c1OCC(F)F [Example 42, 6-chloro-N-[5-(2,2-difluoroethoxy)-4,6-dimethoxy-pyrimidin-2-yl]-7-(5-fluoropyrazin-2-yl)-1H-indole-3-sulfonamide]
IC50: 38 nM

COc1nc(NS(=O)(=O)c2c[nH]c3c(-c4cccnn4)c(Br)ccc23)nc(OC)c1CC(F)F [Example 43, 6-bromo-N-[5-(2,2-difluoroethyl)-4,6-dimethoxy-pyrimidin-2-yl]-7-pyridazin-3-yl-1H-indole-3-sulfonamide]
IC50: 32 nM

COc1nc(NS(=O)(=O)c2c[nH]c3c(-c4ncccn4)c(C(F)F)ccc23)nc(OC)c1OCCF [Example 44, 6-(difluoromethyl)-N-[5-(2-fluoroethoxy)-4,6-dimethoxy-pyrimidin-2-yl]-7-(2-pyrimidyl)-1H-indole-3-sulfonamide]
IC50: 182 nM

COc1nc(NS(=O)(=O)c2c[nH]c3c(-c4ncc[nH]4)c(F)ccc23)nc(OC)c1OCC(F)F [Example 45, N-[5-(2,2-difluoroethoxy)-4,6-dimethoxy-pyrimidin-2-yl]-6-fluoro-7-(1H-imidazol-2-yl)-1H-indole-3-sulfonamide]
IC50: 50 nM

COc1nc(NS(=O)(=O)c2c[nH]c3c(-c4ncn(C)c4C)c(Cl)ccc23)nc(OC)c1OCC(F)F [Example 46, 6-chloro-N-[5-(2,2-difluoroethoxy)-4,6-dimethoxy-pyrimidin-2-yl]-7-(1,5-dimethylimidazol-4-yl)-1H-indole-3-sulfonamide]
IC50: 34 nM

COc1nc(NS(=O)(=O)c2c[nH]c3c(-c4cn(C)cn4)c(Cl)ccc23)nc(OC)c1OCC(F)F [Example 47, 6-chloro-N-[5-(2,2-difluoroethoxy)-4,6-dimethoxy-pyrimidin-2-yl]-7-(1-methylimidazol-4-yl)-1H-indole-3-sulfonamide]
IC50: 17 nM

COc1nc(NS(=O)(=O)c2c[nH]c3c(-c4ncccn4)c(C)ccc23)nc(OC)c1OCC(F)F [Example 48, N-[5-(2,2-difluoroethoxy)-4,6-dimethoxy-pyrimidin-2-yl]-6-methyl-7-(2-pyrimidyl)-1H-indole-3-sulfonamide]
IC50: 86 nM

COc1nc(NS(=O)(=O)c2c[nH]c3c(-c4ncccn4)c(C(F)F)ccc23)nc(OC)c1OCC(F)F [Example 49, N-[5-(2,2-difluoroethoxy)-4,6-dimethoxy-pyrimidin-2-yl]-6-(difluoromethyl)-7-(2-pyrimidyl)-1H-indole-3-sulfonamide]
IC50: 301 nM

COc1nc(NS(=O)(=O)c2c[nH]c3c(-c4ncccn4)c(C(F)F)ccc23)nc(OC)c1OC(F)F [Example 50, N-[5-(difluoromethoxy)-4,6-dimethoxy-pyrimidin-2-yl]-6-(difluoromethyl)-7-(2-pyrimidyl)-1H-indole-3-sulfonamide]
IC50: 288 nM

COc1nc(NS(=O)(=O)c2c[nH]c3c(-c4ncccn4)c(C(F)F)ccc23)nc(OC)c1CC(F)F [Example 51, N-[5-(2,2-difluoroethyl)-4,6-dimethoxy-pyrimidin-2-yl]-6-(difluoromethyl)-7-(2-pyrimidyl)-1H-indole-3-sulfonamide]
IC50: 74 nM

COc1nc(NS(=O)(=O)c2c[nH]c3c(-c4ncccn4)c(C)ccc23)nc(OC)c1CC(F)F [Example 52, N-[5-(2,2-difluoroethyl)-4,6-dimethoxy-pyrimidin-2-yl]-6-methyl-7-(2-pyrimidyl)-1H-indole-3-sulfonamide]
IC50: 22 nM

COc1nc(NS(=O)(=O)c2c[nH]c3c(-c4nccnc4C)cccc23)nc(OC)c1CC(F)F [Example 53, N-[5-(2,2-difluoroethyl)-4,6-dimethoxy-pyrimidin-2-yl]-7-(3-methylpyrazin-2-yl)-1H-indole-3-sulfonamide]
IC50: 43 nM

COc1nc(NS(=O)(=O)c2c[nH]c3c(-c4nccnc4C)cccc23)nc(OC)c1OCC(F)F [Example 54, N-[5-(2,2-difluoroethoxy)-4,6-dimethoxy-pyrimidin-2-yl]-7-(3-methylpyrazin-2-yl)-1H-indole-3-sulfonamide]
IC50: 64 nM

COc1nc(NS(=O)(=O)c2c[nH]c3c(-c4ncccn4)c(C)ccc23)nc(OC)c1OC(F)F [Example 55, N-[5-(difluoromethoxy)-4,6-dimethoxy-pyrimidin-2-yl]-6-methyl-7-(2-pyrimidyl)-1H-indole-3-sulfonamide]
IC50: 157 nM

COc1nc(NS(=O)(=O)c2c[nH]c3c(-c4ncccn4)c(C)ccc23)nc(OC)c1OCCF [Example 56, N-[5-(2-fluoroethoxy)-4,6-dimethoxy-pyrimidin-2-yl]-6-methyl-7-(2-pyrimidyl)-1H-indole-3-sulfonamide]
IC50: 129 nM

COc1nc(NS(=O)(=O)c2c[nH]c3c(-c4cccnn4)c(C)ccc23)nc(OC)c1OCC(F)F [Example 57, N-[5-(2,2-difluoroethoxy)-4,6-dimethoxy-pyrimidin-2-yl]-6-methyl-7-pyridazin-3-yl-1H-indole-3-sulfonamide]
IC50: 109 nM
